US4876277A, “Antimicrobial/antifungal compositions” (Plant Cell Research Institute, Inc., priority 1987, dated 1989)
Values after ≈ are worked out from the molar mass of the structure shown. Where two headings read alike, the source gives them in different places.

Tests used:
[1] = test system: Cladosporium herbarum; assay: ED50 on fungi, mycelial growth on V-8 juice agar: Cladosporium herbarum; assay type: cell-based; details: Example 2, 72 hrs, read-out: ED50 concentration, CH
[2] = test system: Helminthosporium carbonum; assay: ED50 on fungi, mycelial growth on V-8 juice agar: Helminthosporium carbonum; assay type: cell-based; details: Bipolaris zeicola, Example 3, 72 hrs, read-out: ED50 concentration, HC
[3] = test system: Alternaria brassicicola; assay: ED50 on fungi, mycelial growth on V-8 juice agar: Alternaria brassicicola; assay type: cell-based; details: Example 4, 72 hrs, read-out: ED50 concentration, AB
[4] = test system: Pyrenochaeta terrestris; assay: ED50 on fungi, mycelial growth on V-8 juice agar: Pyrenochaeta terrestris; assay type: cell-based; details: Setophoma terrestris, Example 5, 72 hrs, read-out: ED50 concentration, PT
[5] = test system: Alternaria chrysanthemi; assay: ED50 on fungi, mycelial growth on V-8 juice agar: Alternaria chrysanthemi; assay type: cell-based; details: Example 6, 72 hrs, read-out: ED50 concentration, AC
[6] = test system: Xanthomonas campestris pv. campestris; assay: ED50 on bacteria, liquid nutrient medium: X. campestris pv. campestris; assay type: cell-based; details: 48 h, Example 7, two days, read-out: ED50 concentration, X.C. pv. campestris
[7] = test system: Xanthomonas campestris pv. carotae; assay: ED50 on bacteria, liquid nutrient medium: X. campestris pv. carotae; assay type: cell-based; details: 48 h, read-out: ED50 concentration, X.C. pv. carotae
[8] = test system: Agrobacterium tumefaciens; assay: ED50 on bacteria, liquid nutrient medium: Agrobacterium tumefaciens; assay type: cell-based; details: 48 h, Example 9, two days, read-out: ED50 concentration, AT
[9] = test system: Rhizobium japonicum; assay: ED50 on bacteria, liquid nutrient medium: Rhizobium japonicum; assay type: cell-based; details: Bradyrhizobium japonicum, 48 h, Example 10, two days, read-out: ED50 concentration, RJ
[10] = test system: Saccharomyces cerevisiae from Universal Foods; assay: ED50 on yeast, liquid nutrient medium: Yeast I; assay type: cell-based; details: 48 h, read-out: ED50 concentration, Yeast-I
[11] = test system: haploid lab strain from Yeast I; assay: ED50 on yeast, liquid nutrient medium: Yeast II; assay type: cell-based; details: Saccharomyces cerevisiae, 48 h, read-out: ED50 concentration, Yeast-II
[12] = test system: Pseudoperonospora cubensis; assay: in vivo fungicide screen: cucumber downy mildew (CDM); details: for % compared to control, CDM: 100 ppm, foliar spray before infection
[13] = test system: Piricularia oryzae; assay type: in vivo
[14] = test system: Pellicularia filamentosa; assay: in vivo fungicide screen: rice sheath blight (RSB); details: for % compared to control, RSB: 100 ppm, foliar spray before infection
[15] = test system: Phytophtora infestans; assay type: in vivo
[16] = test system: Puccinia recondita; assay: in vivo fungicide screen: wheat leaf rust (WLR); details: for % compared to control, WLR: 100 ppm, foliar spray before infection
[17] = test system: Erysiphe graminis; assay: in vivo fungicide screen: wheat powdery mildew (WPM); details: for % compared to control, WPM: 100 ppm, foliar spray before infection
[18] = test system: average dicots; assay: herbicide screening: average dicots; details: in vivo
From the text: (§1) As noted above the compounds are ineffective as herbicides against one or more of the following weeds: average dicots, cocklebur, morning glory, pigweed, smartweed, velvet leaf, average monocots, barnyard grass, green foxtail, johnson grass, yellow nutsedge and the wild oat in both pre-emergent and post-emergent screening tests, at application rates of 2 lbs/acre for Compound 4, and 4 lbs/acre for Compound 5.

[19] = test system: pigweed; assay: herbicide screening: pigweed; details: in vivo
From the text: as §1

[20] = test system: velvet leaf; assay: herbicide screening: velvet leaf; details: in vivo
From the text: as §1

[21] = test system: average monocots; assay: herbicide screening: average monocots; details: in vivo
From the text: as §1

[22] = test system: green foxtails; assay: herbicide screening: green foxtails; details: in vivo
From the text: as §1

[23] = test system: cockleburr; assay: herbicide screening: cocklebur; details: in vivo
From the text: as §1

[24] = test system: morning glory; assay: herbicide screening: morning glory; details: in vivo
From the text: as §1

[25] = test system: smartweed; assay: herbicide screening: smartweed; details: in vivo
From the text: as §1

[26] = test system: barnyard grass; assay: herbicide screening: barnyard grass; details: in vivo
From the text: as §1

[27] = test system: johnson grass; assay: herbicide screening: johnson grass; details: in vivo
From the text: as §1

[28] = test system: yellow nutsedge; assay: herbicide screening: yellow nutsedge; details: in vivo
From the text: as §1

[29] = test system: wild oat; assay: herbicide screening: wild oat; details: in vivo
From the text: as §1

[30] = test system: weeds; assay: pre-emergent and post-emergent herbicide screening tests; assay type: in vivo
From the text: as §1

[31] = test system: signal grass; assay: herbicide screening: signal grass; details: in vivo
[32] = test system: southern armyworm; assay: insecticide activity: southern armyworm; assay type: in vivo; details: 150 to 600 ppm
[33] = test system: mexican bean beetle; assay: insecticide activity: mexican bean beetle; assay type: in vivo; details: 150 to 600 ppm
[34] = test system: southern corn rootworm; assay: insecticide activity: southern corn rootworm; assay type: in vivo; details: 150 to 600 ppm
[35] = test system: green peach aphid; assay: insecticide activity: green peach aphid; assay type: in vivo; details: 150 to 600 ppm
[36] = test system: two-spotted spider mite; assay: insecticide activity: two-spotted spider mite; assay type: in vivo; details: 150 to 600 ppm
[37] = test system: southern root knot nematode; assay: insecticide activity: southern root knot nematode; assay type: in vivo; details: 150 to 600 ppm
[38] = test system: Xanthomonas campestris; assay: activity on Xanthomonas campestris; assay type: cell-based
[39] = test system: fish; details: in vivo; cited from earlier work
[40] = test system: houseflies; details: in vivo; cited from earlier work
[41] = test system: cockroaches; details: in vivo; cited from earlier work
[42] = test system: flour beetles; details: in vivo; cited from earlier work
[43] = test system: apples; details: in vivo; cited from earlier work
[44] = 100 ppm, foliar spray before infection

## C=CCc1cc(OC)c(OC)c2c1OCO2 [Compound 5, 4,5-dimethoxy-2,3-methylenedioxy-1-allyl benzene]
[1]
  IC50: 16 µg/mL (≈ 72 µM)
[2]
  IC50: 16 µg/mL (≈ 72 µM)
[3]
  IC50: 8 µg/mL (≈ 36 µM)
[4]
  IC50: 10 µg/mL (≈ 45 µM)
[5]
  IC50: 10 µg/mL (≈ 45 µM)
[6]
  IC50: 10 µg/mL (≈ 45 µM)
[7]
  IC50: 10 µg/mL (≈ 45 µM)
[8]
  IC50: > 200 µg/mL
[9]
  IC50: > 500 µg/mL
[10]
  IC50: > 500 µg/mL
[11]
  IC50: > 500 µg/mL
[12]
  % compared to control, CDM: 0%
[12]; in vivo
  effectiveness against cucumber downy mildew: substantially ineffective
[13]; in vivo
  % compared to control, RB: 0%
  effectiveness against rice blast: substantially ineffective
[14]
  % compared to control, RSB: 0%
[14]; in vivo
  effectiveness against rice sheath blight: substantially ineffective
[15]; in vivo
  % compared to control, TLB: 0%
  effectiveness against tomato leaf blight: substantially ineffective
[16]
  % compared to control, WLR: 0%
[16]; in vivo
  effectiveness against wheat leaf rust: substantially ineffective
[17]
  % compared to control, WPM: 95%
[18]
  herbicide effect, average dicots: ineffective
[19]
  herbicide effect, pigweed: ineffective
[20]
  herbicide effect, velvet leaf: ineffective
[21]
  herbicide effect, average monocots: ineffective
[22]
  herbicide effect, green foxtails: ineffective
[23]
  herbicide effect, cockleburr: ineffective
[24]
  herbicide effect, morning glory: ineffective
[25]
  herbicide effect, smartweed: ineffective
[26]
  herbicide effect, barnyard grass: ineffective
[27]
  herbicide effect, johnson grass: ineffective
[28]
  herbicide effect, yellow nutsedge: ineffective
[29]
  herbicide effect, wild oat: ineffective
[30]; 4 lbs/acre
  herbicide effect against one or more of the listed weeds: ineffective

## MANCOZEB
[17]; at up to 300 ppm
  activity preventing infection of wheat by Erysiphe graminis: 0%

## C=CCc1cc(OC)c(O)c2c1OCO2 [Compound 4, 6-methoxy-2,3-methylenedioxy-4-allyl phenol]
[1]
  IC50: 16.5 µg/mL (≈ 79.2 µM)
[2]
  IC50: 18 µg/mL (≈ 86.4 µM)
[3]
  IC50: 8 µg/mL (≈ 38.4 µM)
[4]
  IC50: 10 µg/mL (≈ 48 µM)
[5]
  IC50: 10 µg/mL (≈ 48 µM)
[6]
  IC50: 10 µg/mL (≈ 48 µM)
[8]
  IC50: > 200 µg/mL
[9]
  IC50: > 500 µg/mL
[10]; Example 11, liquid medium, two days
  IC50: > 500 µg/mL
[11]; Example 12, liquid medium, two days
  IC50: > 500 µg/mL
[12]
  % compared to control, CDM: 0%
[13]; [44]
  % compared to control, RB: 0%
[14]
  % compared to control, RSB: 0%
[15]; [44]
  % compared to control, TLB: 0%
[16]
  % compared to control, WLR: 0%
[17]
  % compared to control, WPM: 75%
[18]
  herbicide effect, average dicots: ineffective
[19]
  herbicide effect, pigweed: ineffective
[20]
  herbicide effect, velvet leaf: ineffective
[21]
  herbicide effect, average monocots: ineffective
[22]
  herbicide effect, green foxtails: ineffective
[31]
  herbicide effect, signal grass: ineffective
[30]; 2 lbs/acre
  herbicide effect against one or more of the listed weeds: ineffective
[32]
  insecticide activity, southern armyworm: ineffective
[33]
  insecticide activity, mexican bean beetle: ineffective
[34]
  insecticide activity, southern corn rootworm: ineffective
[35]
  insecticide activity, green peach aphid: ineffective
[36]
  insecticide activity, two-spotted spider mite: ineffective
[37]
  insecticide activity, southern root knot nematode: ineffective
[38]
  effect on Xanthomonas campestris: effective

## CC(C)(C)C(=O)C(Oc1ccc(Cl)cc1)n1cncn1 (stereo not drawn) [BAYLETON]
[17]; in vivo
  activity preventing infection of wheat by Erysiphe graminis: 100%
[39]
  toxicity to fish: toxic to fish

## CCCc1cc2c(c(OC)c1OC)OCO2 [propyl analog of dillapiole]
[40]
  synergic with pyrethrins against houseflies: effective synergic
[41]
  synergic with pyrethrins against cockroaches: effective synergic
[42]
  synergic with pyrethrins against flour beetles: effective synergic

## CC(C)OC(=O)C(C(=O)OC(C)C)=C1SCCS1 [FUJI-ONE, diissopropyl-1,3-dithiolau-2-ylidane malonate]
[17]; at up to 300 ppm
  activity preventing infection of wheat by Erysiphe graminis: 0%

## CCCCNC(=O)n1c(NC(=O)OC)nc2ccccc21 [BENOMYL, methyl 1-(butylcarbamoyl)-2-benzimidazolecarbonate]
[17]; in the range of 38-300 ppm
  activity preventing infection of wheat by Erysiphe graminis: 100%
[43]
  fruit finish of apples: apples do not express fine fruit finish
[39]
  toxicity to fish: toxic to fish

## C=CCOC1=NS(=O)(=O)c2ccccc21 [ORYZEMATE]
[17]; at up to 300 ppm
  activity preventing infection of wheat by Erysiphe graminis: 0%

## CCOP(=O)(Sc1ccccc1)Sc1ccccc1 [EDIFENPHOS, O-ethyl-S,S-diphenyl-dithiophosphate]
[17]; in the range of 75-300 ppm
  activity preventing infection of wheat by Erysiphe graminis: 100%
[39]
  toxicity to fish: toxic to fish
